Tests used:
[1] = target: CD11b/CD18 (Homo sapiens, UniProt P11215); assay: Immunofluorescence microscopy of CD11b/CD18 clustering on K562 WT cells; type: cell-based; set-up: K562 cells stably transfected with plasmid encoding wild-type integrin CD11b/CD18; expressed in transfected cells
Procedure: To visualize changes upon ligand binding, fibrinogen (50 μg/mL) was also added to the cell suspension media in a second set of incubations. The cells were fixed in suspension and incubated with mAb 184, which is specific for CD11b/CD18, followed by Alexa Fluor 488-conjugated goat antibody against mouse Ig (Sigma). Fluorescence images were recorded with a Leica DMI16000 deconvolution microscope using an HCX APO 40×/0.75 DRY objective with a DCF360FX camera and with Leica LAS-AF software. A 3-dimensional representation of CD11b/CD18 fluorescence intensity and the analysis of the number of CD11b/CD18 clusters per cell was performed using ImageJ software as described. Clustering determination was carried out by counting individual fluorescent peaks that were projected from the basal to the apical side of the cell and were at least 50% above the base line levels. The images presented are representative of at least 20 cells analyzed for each condition from at least three independent experiments.
Therefore, to investigate, a combination of confocal microscopy (to study clustering) and western blotting assays (to study intracellular signaling) using K562 WT cells were used. First, CD11b/CD18 cell-surface distribution and macro clustering was studied under various conditions using confocal microscopy. K562 WT cells in suspension were incubated with various agonists, fixed with paraformaldehyde and the surface expressed CD11b/CD18 was fluorescently stained with anti-CD11b/CD18 mAb 1B4. […] The fluorescence images shown are representative of three independent experiments. […] Also shown below each image is a 3D representation of CD11b fluorescence intensity for selected cells, analyzed in ImageJ In FIG. 5B, data shown are mean±SEM from >40 cells per condition and from >3 independent experiments for each condition. ***p<0.0001, ns=not significant.

[2] = target: T1, CD11b/CD18 (Mus musculus, UniProt P05555); assay: Cell adhesion assay, RAW 264.7 cells on immobilized fibrinogen; type: cell-based, murine; settings: vs basal 1 mM Ca2+ and Mg2+
T1 construct: that have constitutive CD11b/CD18 surface expression were used; host or cells: RAW 264.7 murine macrophage cell line
Procedure: K562 cells stably transfected with plasmid encoding wild-type integrin CD11b/CD18 (K562 WT cells) have been described previously and were maintained in Iscove's Modified Dulbecco's Medium (IMDM) supplemented with 10% FBS and G418 (0.5 mg/ml). The murine macrophage cell line (RAW 264.7 cells) was obtained from ATCC and the cells were maintained in DMEM supplemented with 10% heat-inactivated FBS according to the manufacturer's instructions. The primary rat peritoneal macrophages were isolated from the wild type Fisher 344 rats that had been previously injected with 5 mL of Brewer's thioglycolate broth (Sigma-Aldrich). Macrophage purity was directly analyzed by single channel flow cytometry using rat macrophage specific monoclonal antibodies ED1 (AbD Serotec, Raleigh, N.C.), WT.5 (BD Biosciences) and His36 (BD Biosciences). Purity was typically >85%. Macrophages were used in assays immediately upon isolation.
Cell adhesion assays using K562 WT, murine RAW 264.7 cells and the primary rat macrophages were performed as previously described and used immobilized fibrinogen as the ligand of CD11b/CD18 [49]. […] The remaining adherent cells were fixed using 4% formaldehyde and quantified by imaging microscopy as previously described (22, 63). […]

[3] = tested on: T cells from the draining lymph nodes; assay: IFN production by antigen-reactive T cells (MOG-peptide); type: cell-based, mice; settings: antigen dose-dependent
Procedure: Additionally, LA1 decreased IFN-[…] production by T-cells in an antigen dose-dependent fashion (MOG-peptide, data not shown) when antigen-reactive T cells from the draining lymph nodes of mice were assessed.

[4] = LA1 concentration in mouse blood after PO and IP dosing (LC-MS); type: in vivo; settings: 10 mg/kg, mice
[5] = tested on: MyD88; assay: MyD88 levels in THP-1 cells; type: cell-based, human
Excerpt: TLR4-mediated signaling requires participation of the adaptor protein MyD88 (43) and MyD88−/− mice are protected from kidney damage following IRI. TLR4 activation leads to the binding and stabilization of adaptor protein MyD88, which recruits downstream kinases to initiate Nf-kB-mediated pro-inflammatory signaling. Subsequently, TLR4 signaling induces a negative feedback loop by endogenous activation of CD11b/CD18, which activates Syk to phosphorylate MyD88, tagging it for ubiquitin-mediated destruction. […] A pilot experiment was carried out to validate this hypothesis by determining the levels of MyD88 in human monocytic THP-1 cells.

T1 sequence (P05555 17-1153): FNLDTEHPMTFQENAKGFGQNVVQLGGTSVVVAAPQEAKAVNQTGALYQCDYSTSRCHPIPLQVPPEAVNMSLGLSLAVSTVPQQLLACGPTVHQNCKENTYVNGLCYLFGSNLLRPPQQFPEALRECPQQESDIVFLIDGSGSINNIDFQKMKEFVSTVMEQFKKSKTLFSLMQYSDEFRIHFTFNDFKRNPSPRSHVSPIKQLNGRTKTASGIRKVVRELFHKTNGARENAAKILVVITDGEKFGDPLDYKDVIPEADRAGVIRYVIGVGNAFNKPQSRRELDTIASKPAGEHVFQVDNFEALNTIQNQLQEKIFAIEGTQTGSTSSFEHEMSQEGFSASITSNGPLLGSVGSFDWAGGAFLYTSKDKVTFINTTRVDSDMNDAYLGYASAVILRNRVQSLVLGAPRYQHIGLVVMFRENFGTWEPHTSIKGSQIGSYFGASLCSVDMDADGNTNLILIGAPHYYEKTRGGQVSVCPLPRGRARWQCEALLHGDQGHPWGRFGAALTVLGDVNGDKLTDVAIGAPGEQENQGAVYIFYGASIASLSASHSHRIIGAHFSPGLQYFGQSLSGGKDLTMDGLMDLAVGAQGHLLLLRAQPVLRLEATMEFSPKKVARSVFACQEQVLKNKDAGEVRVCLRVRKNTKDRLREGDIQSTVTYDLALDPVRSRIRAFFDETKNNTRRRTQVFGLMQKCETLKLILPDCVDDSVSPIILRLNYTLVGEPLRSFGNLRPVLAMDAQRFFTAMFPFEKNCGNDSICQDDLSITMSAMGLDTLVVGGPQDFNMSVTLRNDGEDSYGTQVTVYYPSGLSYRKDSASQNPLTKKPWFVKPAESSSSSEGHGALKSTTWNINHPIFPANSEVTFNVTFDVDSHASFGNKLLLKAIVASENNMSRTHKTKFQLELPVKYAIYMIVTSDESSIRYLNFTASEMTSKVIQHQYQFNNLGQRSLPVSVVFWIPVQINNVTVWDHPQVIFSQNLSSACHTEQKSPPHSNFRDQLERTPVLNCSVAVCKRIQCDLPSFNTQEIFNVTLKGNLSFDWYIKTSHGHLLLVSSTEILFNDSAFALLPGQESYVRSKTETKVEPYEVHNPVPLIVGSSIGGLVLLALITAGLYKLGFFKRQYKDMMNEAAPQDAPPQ
T1 sequence (P11835 24-771 partner): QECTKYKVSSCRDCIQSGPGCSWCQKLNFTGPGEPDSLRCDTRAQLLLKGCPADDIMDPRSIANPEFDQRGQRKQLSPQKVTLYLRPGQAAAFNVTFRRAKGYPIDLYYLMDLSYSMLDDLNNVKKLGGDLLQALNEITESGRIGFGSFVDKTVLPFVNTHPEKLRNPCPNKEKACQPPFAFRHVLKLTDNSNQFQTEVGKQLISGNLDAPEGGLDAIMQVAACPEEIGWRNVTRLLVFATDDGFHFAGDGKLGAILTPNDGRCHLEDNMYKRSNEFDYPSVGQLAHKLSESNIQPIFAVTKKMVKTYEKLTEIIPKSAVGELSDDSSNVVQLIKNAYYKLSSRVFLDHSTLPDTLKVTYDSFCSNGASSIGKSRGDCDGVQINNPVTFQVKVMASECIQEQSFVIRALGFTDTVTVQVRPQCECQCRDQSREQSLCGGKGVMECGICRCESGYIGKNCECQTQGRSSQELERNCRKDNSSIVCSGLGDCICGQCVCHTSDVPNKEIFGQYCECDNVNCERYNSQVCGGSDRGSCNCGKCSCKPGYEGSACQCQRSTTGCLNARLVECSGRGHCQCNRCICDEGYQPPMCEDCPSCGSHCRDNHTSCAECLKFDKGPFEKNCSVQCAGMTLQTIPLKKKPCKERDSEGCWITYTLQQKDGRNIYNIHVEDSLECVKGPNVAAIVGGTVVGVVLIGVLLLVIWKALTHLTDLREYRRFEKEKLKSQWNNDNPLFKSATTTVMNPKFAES

O=C(O)c1ccc(-c2ccc(/C=C3\SC(=S)N(Cc4ccccc4)C3=O)o2)cc1 [LA1]
CD11b/CD18 macro clustering on cell surface ([1]; absence of ligand fibrinogen, 45 minutes at 37° C.): did not induce any significant CD11b/CD18 macro clustering
CD11b/CD18 macro clustering on cell surface ([1]; presence of fibrinogen 50 μg/mL): did so in the presence of fibrinogen
adhesion of RAW 264.7 cells to immobilized fibrinogen [2]: significantly and similarly increased the level of cell adhesion
IFN-[…] production by T-cells [3]: decreased
bioavailability [4]: bioavailable
concentration of LA1 in plasma [4]: high concentrations
levels in blood [4]: micromolar levels
mean residence time [4]: at least a few hours
time to complete degradation of MyD88 ([5]; LA1 alone, absence of LPS): less than 2 hours
MyD88 degradation ([5]; co-treatment with LPS, THP-1 cells): much faster degradation of MyD88

From US10239871B2, “Compounds and methods for regulating integrins” (ADHAERE PHARMACEUTICALS, INC., priority 2012, dated 2019)
